Our source for the IC50, Ki and EC50 values is patent publication US9260425B2 (Genetech, Inc., priority 2011, dated 2016).

In one test the test system is BaF3 parental cells. In words: In vitro cell proliferation potency assay, BaF3 parental line with IL-3 (Cell Titer Glo). It is filed as cell-based, murine. Conditions: Mus musculus, 2 ng/mL mIL-3, incubated overnight, read-out: Prolif. BaF3 IL3 (IC50). The procedure:
(§1) In Vitro Cell Proliferation Potency Assays
(§2) BaF3 parental line was obtained from the DSMZ repository. BaF3 lines transfected with PIM-1 or PIM-2 were generated. Mouse IL-3 was purchased from R&D Systems. G418 was purchased from Clontech. Media for BaF3 parental line contained RPMI, 10% FBS, 2 mM L-Glutamine, 2 ng/mL mIL-3. Media for BaF3 PIM1 & 2 lines contained RPMI, 10% FBS, 2 mM L-Glutamine, […]. Media for MM1.S (multiple myeloma cells) line contained RPMI, 10% FBS, 2 mM L-Glutamine.
(§3) BaF3, a murine interleukin-3 dependent pro-B cell line, parental cells, BaF3 PIM1 cells, BaF3 PIM-2 cells, and MM1.S (multiple myeloma) cells were seeded at 2 k/well, 5 k/well, 5 k/well, and 10 k/well respectively, in a 384-well plate, at 45 μL/well. Test compound was added at 5 μL/well. BaF3 cells (parental and transfected) were incubated overnight, while MM1.S cells were incubated for 72 hours at 37° C., 5% CO2. Cell Titer Glo Reagent (Promega) was added at 50 μL/well, the plates were incubated for 30 minutes, and their luminescence read on an HT Analyst. IC50/EC50 values for the test compound were calculated.

The test system of another test is BaF3 PIM1 cells. Kind of test: In vitro cell proliferation potency assay, BaF3 line transfected with PIM-1 (Cell Titer Glo). It is filed as cell-based, murine. Conditions: incubated overnight, read-out: Prolif. BaF3 PIM-1 (IC50). The procedure:
as §1
BaF3 parental line was obtained from the DSMZ repository. […] Mouse IL-3 was purchased from R&D Systems. G418 was purchased from Clontech. Media for BaF3 parental line contained RPMI, 10% FBS, 2 mM L-Glutamine, 2 ng/mL mIL-3. Media for BaF3 PIM1 & 2 lines contained RPMI, 10% FBS, 2 mM L-Glutamine, […]. Media for MM1.S (multiple myeloma cells) line contained RPMI, 10% FBS, 2 mM L-Glutamine.
as §3

The next test deals with Pim-1 (Homo sapiens (Human), UniProt P11309). In words: Pim kinase binding activity assay (Example 901), PIM-1 enzyme, Caliper microfluidic peptide phosphorylation. It is filed as biochemical. Conditions: 20 pM PIM-1, 10 μM ATP, 1 μM FAM-peptide, 90 minutes at room temperature. An outline of the steps:
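PIM-1 at 20 pM phosphorylated 1 μM FAM-labelled Pim peptide with 10 μM ATP in HEPES pH 7.2, MgCl2, Tween 20 and DTT for 90 min at room temperature. EDTA stopped the reaction, and product and substrate were resolved by microfluidic electrophoresis (ex 488/em 530 nm). Ki was derived from substrate conversion.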

Test [1] relates to MM1.S (multiple myeloma) cells. Kind of test: In vitro cell proliferation potency assay, MM1.S cells (Cell Titer Glo). It is filed as cell-based. Conditions: Homo sapiens, 72 hours, read-out: Prolif. MM1S ATP (EC50). As to the method: as §1, §2, §3

Where two headings read alike, the source gives them in different places.

Pim-1, sequence (P11309 whole entry): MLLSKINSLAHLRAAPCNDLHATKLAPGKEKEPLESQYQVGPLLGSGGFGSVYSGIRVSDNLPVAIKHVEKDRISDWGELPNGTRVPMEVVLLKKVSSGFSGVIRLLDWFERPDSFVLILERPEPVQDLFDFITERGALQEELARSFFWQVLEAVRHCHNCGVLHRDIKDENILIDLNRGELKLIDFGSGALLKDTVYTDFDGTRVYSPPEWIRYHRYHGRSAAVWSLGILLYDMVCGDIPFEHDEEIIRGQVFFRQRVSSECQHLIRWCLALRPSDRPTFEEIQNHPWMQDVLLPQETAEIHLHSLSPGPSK

`c1ccc(-c2n[nH]c3cnc(-c4cccnc4)cc23)cc1` [Example 116, 3-phenyl-5-(pyridin-3-yl)-1H-pyrazolo[3,4-c]pyridine]: the IC50 in the test on BaF3 parental cells worked out at 13.7 µM.
Consider `Fc1ccccc1-c1n[nH]c2cnc(-c3cccnc3)cc12` [Example 117, 3-(2-fluorophenyl)-5-(pyridin-3-yl)-1H-pyrazolo[3,4-c]pyridine], for which the IC50 came out at 12.9 µM in the test on BaF3 parental cells and 18800 nM in the test on BaF3 PIM1 cells (Mus musculus).
For `Cn1cc(-c2cc3c(-c4ccccc4F)n[nH]c3cn2)cn1` [Example 129, 3-(2-fluorophenyl)-5-(1-methyl-1H-pyrazol-4-yl)-1H-pyrazolo[3,4-c]pyridine], at Pim-1, affinity was put at a Ki of 7.85 nM. Also, the half-inhibitory concentration (IC50) with BaF3 parental cells amounted to 5.6 µM; in the test with BaF3 PIM1 cells (Mus musculus), 5200 nM.
Compound `NC1CCN(c2cccc(-c3n[nH]c4cnc(-c5cccnc5)cc34)n2)CC1` [Example 144, 1-(6-(5-(pyridin-3-yl)-1H-pyrazolo[3,4-c]pyridin-3-yl)pyridin-2-yl)piperidin-4-amine] returned a Ki at Pim-1 of 0.0839 nM. The IC50 in the test with BaF3 parental cells came out at 3.3 µM; in the test with BaF3 PIM1 cells (Mus musculus), 130 nM. For the same compound, the EC50 in test [1] came out at 2200 nM.
The matching figures for `NC1CCN(c2cncc(-c3cc4c(-c5ccccc5F)n[nH]c4cn3)n2)CC1` [Example 147, 1-(6-(3-(2-fluorophenyl)-1H-pyrazolo[3,4-c]pyridin-5-yl)pyrazin-2-yl)piperidin-4-amine]: 0.121 nM, 3.9 µM, 368 nM and 60.4 nM.
On Pim-1, `N[C@@H]1CCCN(c2cccc(-c3n[nH]c4cnc(-c5cccnc5)cc34)n2)C1` [Example 149, (R)-1-(6-(5-(pyridin-3-yl)-1H-pyrazolo[3,4-c]pyridin-3-yl)pyridin-2-yl)piperidin-3-amine] registered a Ki of 0.027 nM. Further, the figures for the IC50 in the test on BaF3 parental cells and in the test with BaF3 PIM1 cells (Mus musculus) were 1.5 µM and 261 nM, respectively. Besides, the EC50 in test [1] came to 166 nM.
As for `N[C@H]1CCCN(c2cncc(-c3cc4c(-c5ccccc5F)n[nH]c4cn3)n2)C1` [Example 152, (S)-1-(6-(3-(2-fluorophenyl)-1H-pyrazolo[3,4-c]pyridin-5-yl)pyrazin-2-yl)piperidin-3-amine], the figures for the concentration for half-maximal inhibition (IC50) in the test with BaF3 parental cells and with BaF3 PIM1 cells (Mus musculus) were 2.7 µM and 47.1 nM, respectively. The concentration giving a half-maximal response (EC50) in test [1] was 631 nM.
On the same counts, the results for `N[C@@H]1CCCN(c2cncc(-c3cc4c(-c5ccccc5F)n[nH]c4cn3)n2)C1` [Example 153, (R)-1-(6-(3-(2-fluorophenyl)-1H-pyrazolo[3,4-c]pyridin-5-yl)pyrazin-2-yl)piperidin-3-amine] are 2.5 µM, 28 nM and 436 nM.
Compound `N[C@H]1CCCN(c2cccc(-c3n[nH]c4cnc(-c5cccnc5)cc34)n2)C1` [Example 161, (S)-1-(6-(5-(pyridin-3-yl)-1H-pyrazolo[3,4-c]pyridin-3-yl)pyridin-2-yl)piperidin-3-amine] gave an inhibitory constant (Ki) on Pim-1 of 0.0411 nM. Further, the IC50 in the test on BaF3 parental cells was 1.4 µM; in the test on BaF3 PIM1 cells (Mus musculus) it was 731 nM. In addition, the EC50 in test [1] was found to be 281 nM.
On to `Cn1cc(-c2cc3c(-c4cccc(N5CCC[C@H](N)C5)n4)n[nH]c3cn2)cn1` [Example 173, (S)-1-(6-(5-(1-methyl-1H-pyrazol-4-yl)-1H-pyrazolo[3,4-c]pyridin-3-yl)pyridin-2-yl)piperidin-3-amine], for which the figures for the IC50 in the test with BaF3 parental cells and in the test with BaF3 PIM1 cells were 5.7 µM and 251 nM, respectively. Further, the EC50 in test [1] was determined as 376 nM.
Take `N[C@H]1CCN(c2cncc(-c3cc4c(-c5ccccc5F)n[nH]c4cn3)c2)C1` [Example 190, (S)-1-(5-(3-(2-fluorophenyl)-1H-pyrazolo[3,4-c]pyridin-5-yl)pyridin-3-yl)pyrrolidin-3-amine]: at Pim-1, the Ki was found to be 0.27 nM. Besides, the IC50 is 1.8 µM in the test on BaF3 parental cells and 159 nM in the test on BaF3 PIM1 cells (Mus musculus). For the same compound, in test [1], the EC50 turned out to be 67.2 nM.
On the same counts, the results for `NC1CCN(c2nc(-c3n[nH]c4cnc(-c5cccnc5)cc34)ccc2Cl)CC1` [Example 241, 1-(3-chloro-6-(5-(pyridin-3-yl)-1H-pyrazolo[3,4-c]pyridin-3-yl)pyridin-2-yl)piperidin-4-amine] are 0.096 nM, 1.3 µM, 584 nM and 57.3 nM.
On the same counts, the results for `N[C@H]1CCCN(c2cccc(-c3n[nH]c4cnc(-c5cccnc5)cc34)n2)CC1` [Example 248, (S)-1-(6-(5-(pyridin-3-yl)-1H-pyrazolo[3,4-c]pyridin-3-yl)pyridin-2-yl)azepan-4-amine] are 0.048 nM, 1.6 µM, 336 nM and 201 nM.
On the same counts, the results for `N[C@@H]1CCCN(c2cccc(-c3n[nH]c4cnc(-c5cccnc5)cc34)n2)CC1` [Example 249, (R)-1-(6-(5-(pyridin-3-yl)-1H-pyrazolo[3,4-c]pyridin-3-yl)pyridin-2-yl)azepan-4-amine] are 0.02 nM, 2.5 µM, 518 nM and 191 nM.
As for `NC[C@H]1CCN(c2cccc(-c3n[nH]c4cnc(-c5cccnc5)cc34)n2)C1` [Example 270, (R)-(1-(6-(5-(pyridin-3-yl)-1H-pyrazolo[3,4-c]pyridin-3-yl)pyridin-2-yl)pyrrolidin-3-yl)methanamine], the IC50 was 13.1 µM in the test on BaF3 parental cells and 478 nM in the test on BaF3 PIM1 cells (Mus musculus). Further, the EC50 in test [1] is 707 nM.
As for `C=Cc1ccc(-c2n[nH]c3cnc(-c4cccnc4)cc23)nc1N1CCC[C@H](N)C1` [Example 307, (S)-1-(6-(5-(pyridin-3-yl)-1H-pyrazolo[3,4-c]pyridin-3-yl)-3-vinylpyridin-2-yl)piperidin-3-amine], the Ki at Pim-1 came to 0.014 nM. The figures for the IC50 in the test with BaF3 parental cells and in the test on BaF3 PIM1 cells (Mus musculus) were 1.4 µM and 67.1 nM, respectively. In test [1], the EC50 stood at 141 nM.
At Pim-1, `Cc1ccc(-c2n[nH]c3cnc(-c4cccnc4)cc23)nc1N1CC[C@@H](N)C1` [Example 316, (R)-1-(3-methyl-6-(5-(pyridin-3-yl)-1H-pyrazolo[3,4-c]pyridin-3-yl)pyridin-2-yl)pyrrolidin-3-amine] returned a Ki of 0.0549 nM. Further, the IC50 with BaF3 parental cells was 1 µM; in the test on BaF3 PIM1 cells (Mus musculus), 62.8 nM. In addition, the EC50 in test [1] was determined as 114 nM.
For `N[C@H]1CCCN(c2cccc(-c3n[nH]c4cnc(-c5cncs5)cc34)n2)C1` [Example 349, (S)-1-(6-(5-(thiazol-5-yl)-1H-pyrazolo[3,4-c]pyridin-3-yl)pyridin-2-yl)piperidin-3-amine], the IC50 with BaF3 parental cells worked out at 3.4 µM; in the test on BaF3 PIM1 cells (Mus musculus) it was 681 nM. For the same compound, in test [1], the EC50 worked out at 393 nM.
For the compound `N[C@@H]1CCCN(c2cccc(-c3n[nH]c4cnc(-c5cncs5)cc34)n2)C1` [Example 350, (R)-1-(6-(5-(thiazol-5-yl)-1H-pyrazolo[3,4-c]pyridin-3-yl)pyridin-2-yl)piperidin-3-amine], the values for the IC50 in the test on BaF3 parental cells and with BaF3 PIM1 cells (Mus musculus) were 3.6 µM and 188 nM, respectively. In test [1], the EC50 was 287 nM.
As for `CCn1cc(-c2cc3c(-c4cccc(N5CCNCC5)n4)n[nH]c3cn2)cn1` [Example 356, 5-(1-ethyl-1H-pyrazol-4-yl)-3-(6-(piperazin-1-yl)pyridin-2-yl)-1H-pyrazolo[3,4-c]pyridine], the inhibitory constant (Ki) at Pim-1 was determined as 0.073 nM. In addition, the values for the IC50 in the test with BaF3 parental cells and in the test on BaF3 PIM1 cells (Mus musculus) were 5.4 µM and 76.6 nM, respectively. In addition, the EC50 in test [1] was 638 nM.
On Pim-1, `OCCN1CCCN(c2cccc(-c3n[nH]c4cnc(-c5cccnc5)cc34)n2)CC1` [Example 357, 2-(4-(6-(5-(pyridin-3-yl)-1H-pyrazolo[3,4-c]pyridin-3-yl)pyridin-2-yl)-1,4-diazepan-1-yl)ethanol] showed a Ki of 0.26 nM. Further, the IC50 in the test on BaF3 parental cells worked out at 4.9 µM; in the test on BaF3 PIM1 cells (Mus musculus), 709 nM. The EC50 in test [1] came out at 244 nM.
Consider `COCCn1cc(-c2cc3c(-c4cccc(N5CCNCC5)n4)n[nH]c3cn2)cn1` [Example 382, 5-(1-(2-methoxyethyl)-1H-pyrazol-4-yl)-3-(6-(piperazin-1-yl)pyridin-2-yl)-1H-pyrazolo[3,4-c]pyridine], for which the IC50 in the test on BaF3 parental cells was found to be 17 µM; in the test with BaF3 PIM1 cells (Mus musculus), 274 nM. For the same compound, the EC50 in test [1] was found to be 3200 nM.
In the case of `Cc1cncc(-c2cc3c(-c4cccc(N5CCCNCC5)n4)n[nH]c3cn2)n1` [Example 522, 3-(6-(1,4-diazepan-1-yl)pyridin-2-yl)-5-(6-methylpyrazin-2-yl)-1H-pyrazolo[3,4-c]pyridine], the Ki on Pim-1 turned out to be 0.019 nM.
